Results as given in PMC11403612, “Preparation and Preclinical Characterization of a Simple Ester for Dual Exogenous Supply of Lactate and Beta-hydroxybutyrate” (Journal of Agricultural and Food Chemistry, 2024).

System: plasma free fatty acids (FFA)
Test: Plasma free fatty acids after oral LaKe in rats
Type: in vivo, Sprague–Dawley rats
Conditions: 4.5 g/kg oral
Experimental: Male Sprague–Dawley rats (300–350g, Taconic, Ry, Denmark) were kept for acclimatization at a constant temperature of 23 °C with a 12 h light-dark cycle and with unlimited access to food and water. All animal handling was in accordance with national guidelines in Denmark and the guidelines from the Directive 2010/63/EU of the European Parliament on the protection of animals used for scientific purposes, and all experiments conformed to Danish Law (Act. No. 1306 of 23/11/2007). The experimental protocol was approved by the Danish Animal Expectorate (2018-15-0201-01475).
The rats were randomly selected to receive either LaKe (n = 8) or placebo (n = 8). […]
Concentrations of non-esterified free fatty acids (FFA) were measured using a NEFA-HR(2) kit (Wako, Chemicals Gmbh, Germany). Absorbance was measured by spectrometry (PHERAstar FS, BMG LABTECH, […]
Quantification of N-L-lactoyl phenylalanine (Lac-Phe) by LC-MS/MS […]
Pure calibrant samples were prepared from an authentic standard compound (N-L-lactoyl phenylalanine), using the plasma sample preparation method at concentrations equivalent to […] in the original sample. The lower limit of quantification for N-L-lactoyl phenylalanine (Lac-Phe) quantification was estimated to 10 nM. […]

## CC(O)CCOC(=O)C(C)O (centres unmarked) [LaKe, 3-hydroxybutyl 2-hydroxypropanoate]
75 min time point, compared to vehicle
  maximum suppression of FFA levels: > 40%
From 15 min until 105 min
  change in plasma free fatty acids compared to vehicle control: decrease
